According to patent US20250073357A1, “GADOLINIUM-BASED COMPOUND, AND MRI CONTRAST AGENT INCLUDING SAME” (THERANOCURE CO., LTD., priority 2021, published 2025):

Assays:
[1] = Measurement of relaxivity (r1, r2), phantom in 3T MRI; format: physicochemical; settings: tertiary distilled water, 0.0625-1 mM, linear regression, in mM-1 s-1 (unit assumed)
Procedure: The relaxivity (r1, r2) of each of synthesized Gd-DO3A-Va, and cyclic commercial contrast agents Gadovist® and Dotarem® as comparison groups material was measured. Specifically, a phantom was prepared by diluting the gadolinium complex in tertiary distilled water to five concentrations (0.0625, 0.125, 0.25, 0.5, 1 mM), and then T1 and T2 relaxation times were measured in 3T MRI. Thus, R (Relaxation rate=1/T) of each concentration was calculated and the relaxivity (r1, r2) result of the gadolinium complex was obtained through linear regression analysis (see FIG. 3) and shown in a following Table 1.

amyloid beta polymer = amyloid beta polymer (Homo sapiens, UniProt P05067); assay: Amyloid beta polymer targeting ability, MRI phantom experiment; format: binding; settings: incubated with amyloid beta polymer 37° C. 24 hours, washed, 9.4T MR
Sequence of amyloid beta polymer (P05067 672-713 limits assumed): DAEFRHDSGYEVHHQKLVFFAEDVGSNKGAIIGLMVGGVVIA
Procedure: • (1) 221.5 uL of HFIP was added to 1 mg of amyloid beta at a concentration of 1 mM, followed by shaking for 1 hour at room temperature using a shaker to remove preaggregation. • (2) The amyloid beta from which the preaggregation was removed was dried, and 221.5 uL of DMSO was added thereto to achieve a 1 mM concentration. Using a mixer and sonicator, a suspension thereof was prepared, and 878.5 uL of PBS (1×, pH 7.4) was added thereto to achieve a 0.2 mM concentration. • (3) After incubating the suspension at 37° C. for 4 days using a shaker, the polymerized amyloid beta polymer was dispensed by 200 uL. Then, 20 μL of a solution in which each of Gd-DO3A-Va and the commercial contrast agent (Gadovist®) was dissolved in PBS at 2 mM concentration was added thereto. The incubation was carried out thereon at 37° C. for 24 hours using a shaker. • (4) After 24 hours has elapsed, centrifugation was performed thereon to remove the supernatant therefrom. The amyloid beta polymer was washed using PBS. 200 μL of a solution of PBS:DMSO=9:1 was added to a pellet to prepare an MRI phantom sample. As a control, a phantom sample obtained by incubating only the amyloid beta polymer was used. […]

| relaxivity r1 [1] | relaxivity r2 [1] | SMILES | contrast enhancement / signal intensity compared to phantom of only amyloid beta polymer (amyloid beta polymer) |
| --- | --- | --- | --- |
| 3.9 ± 0.1 | 4.8 ± 0.1 | O=C([O-])CN1CCN(CC(=O)[O-])CCN([C@H](CO)[C@H](O)CO)CCN(CC(=O)[O-])CC1.[Gd+3] (racemic) [Gadovist ®] | little difference in contrast enhancement effect |
| 3.4 ± 0.1 | 3.9 ± 0.2 | CNC[C@H](O)[C@@H](O)[C@H](O)[C@H](O)CO.O=C([O-])CN1CCN(CC(=O)[O-])CCN(CC(=O)O)CCN(CC(=O)[O-])CC1.[Gd+3] [Dotarem ®] |  |
